This is an account of results in patent US20080045495A1, “Treatment of Patients with Cystic Disease by Alteration of Fibrocystin Proteolysis” (BOARD OF REGENTS, THE UNIVERSITY OF TEXAS SYSTEM, priority 2006, published 2008).

Square brackets hold non-standard residues; d marks the D form. Peptide text beside a SMILES is read from it. * marks the point of attachment. Nle = CCCC[C@H](N)C(=O)O; Cbz = O=C(OCc1ccccc1)*

Format in all cases: cell-based, human
The test system of test [1] is fibrocystin cleavage in mIMCD3/FC cells. The experiment in a line: Immunoblot (anti-V5) of fibrocystin proteolytic fragments in mIMCD3/FC cells. The settings on record: 30 hours; for cleavage of fibrocystin or stability of proteolytic fragments: FIG. 9.
Test [2] relates to fibrocystin cleavage in HEK-293 cells. The experiment in a line: Luciferase reporter assay of fibrocystin cleavage (pFC-GV / pG5-luc) in HEK-293 cells. Conditions: for cleavage of fibrocystin or stability of proteolytic fragments (luciferase activity): HEK-293, 12 hours. As for the experimental part: Reporter Gene Assays—mIMCD-3 cells, HEK-293 cells, or HeLa cells were plated in 6-well dishes (3×10^5 cells/well) and cotransfected with 0.05 μg phRL-TK(Int−) encoding Renilla luciferase (Promega, Madison, Wis.), 0.1 μg Photinus luciferase reporter plasmids, and 0.01-0.3 μg effector plasmids. Luciferase assays were performed as described previously (Hiesberger, 2004). Relative luciferase activity was calculated as the ratio of Photinus and Renilla luciferase.
(§1) FIG. 4 A is an image of a gel illustrating mIMCD3/FC cells were grown for 4 days and incubated with 0.1 μM thapsigargin (lane 2), 5 mM caffeine (lane 3), 75 μM dantrolene (lane 5), 200 μM ruthenium red (lane 7), or no additions (lanes 1, 4 and 6). After 2 hours, media were replaced with media lacking serum but containing the same supplements, and, in addition, 10 nM mifeprisone. Cell lysates were prepared after 24 hours and analyzed by immunoblotting using anti-V5 antibody. FIG. 4B is a graph of mIMCD-3 cells were transfected with 0.2 μg pG5-luc and either 0.2 μg pFC-GV or 0.2 μg pLDLR-GV. After 24 hours, cells were incubated in serum-free media in the presence or absence of 75 μM dantrolene. Relative luciferase activity was determined after 48 h. Data presented are mean ±SE of three separate transfections. The fibrocystin/Gal4-VP16 fusion protein is shown schematically below. Shaded box indicates the transmembrane segment; filled boxes indicate the N-terminal signal sequence and the C-terminal Gal4-VP16 fusion protein. FIG. 4C is an image of a gel illustrating HEK-293 cells transfected with 6 μg pFC-V5, and 8 hours later incubated in serum-free media containing 1-8 mM caffeine, 0.5 μM calphostin, or no additions. Cells were lysed after 16 h, and extracts were analyzed by immunoblotting using anti-V5 antibody. FIG. 4D is a graph of HEK-293 cells transfected with 0.2 μg pFC-GV and 0.2 μg pG5-luc. After 24 hours, cells were incubated in serum-free media containing 5 mM caffeine or no additions. Luciferase activity was measured after 12 hours. Data presented are mean ±SE of three separate transfections. FIG. 4E is an image of a gel illustrating HEK-293 cells stably expressing the m3 muscarinic receptor (lanes 1-4) and untransfected HEK-293 cells (lanes 5-8) were transfected with 6 μg pFC-V5. […] Cells were lysed after 16 hours, and extracts were analyzed by immunoblotting using anti-V5 antibody.
To quantitatively measure fibrocystin cleavage, a luciferase assay was developed that was similar to the ones employed to quantify the proteolytic cleavage of amyloid precursor protein (APP) and low density lipoprotein receptor related protein-1 (LRP1) (Cao, 2001; May, 2003). A plasmid (FC-GV) encoding the synthetic transcription factor Gal4-VP16 fused to the C-terminus of fibrocystin was generated. Proteolytic cleavage of the fibrocystin fusion protein releases Gal4-VP16, which translocates to the nucleus and activates a Gal4-responsive luciferase reporter gene (pG5-luc). Therefore, luciferase expression correlates with fibrocystin cleavage.
To quantify fibrocystin proteolysis in response to intracellular Ca^2+ release, the luciferase reporter assay was employed. HEK-293 cells were cotransfected with the plasmids pFC-GV and pG5-luc and incubated with either 5 mM caffeine or vehicle (as a control).
FIG. 5A is an image of a gel that illustrates HEK-293 cells were transfected with 6 μg pFC-V5.
(Reporter assays use an easily measured gene product as a stand-in for the process of interest.)

The test system of test [3] is fibrocystin cleavage in mIMCD3/FC cells. The experiment in a line: Immunoblot (anti-V5) of fibrocystin proteolytic fragments in mIMCD3/FC cells. Conditions: FIG. 4A. On the procedure:
Cell Culture, Transfection and Generation of Stable Cell Lines—mIMCD-3 cells were plated at a density of 500,000 cells/100 mm dish, and 24 hours and 48 hours later the cells were transfected with 2 μg of pFC-V5 using Effectene (Qiagen, Valencia, Calif.). Cells were incubated for an additional 72 hours and lysed in 100 μl buffer containing Tris-buffered saline, 0.5% Triton X-100, protease inhibitor cocktail (Hoffmann-La Roche Inc., Indianapolis, Ind.). Twenty μl of the lysates were analyzed by SDS-PAGE, and immunoblot analysis was performed using HRP-conjugated anti-V5 as described previously (Hiesberger, 2005). mIMCD3/FC and mIMCD3/EGFP cell lines with inducible expression of fibrocystin and EGFP, respectively, were produced by transfecting mIMCD-3 cells with 1.5 μg pSwitch and either 1.5 μg pGeneFC or 1.5 μg pGeneEGFP. Stable transfectants were isolated after 14 days of growth in media containing hygromycin (350 μg/ml) and zeocin (300 μg/ml). To test for inducible expression, cells derived from individual clones were treated with mifepristone (10 nM) for 48 h or left untreated, and proteins were analyzed by immunoblotting using HRP-conjugated anti-FLAG. HEK-293 cells stably transfected with the muscarinic acetylcholine receptor M3 were a generous gift from Trevor Shuttleworth (University of Rochester Medical center) (Yang, 1995).
To further investigate the proteolytic cleavage of fibrocystin, mIMCD3/FC cells were generated, in which the expression of recombinant human fibrocystin can be induced by treatment with mifepristone.
FIG. 4 A is an image of a gel illustrating mIMCD3/FC cells were grown for 4 days and incubated with 0.1 μM thapsigargin (lane 2), 5 mM caffeine (lane 3), 75 μM dantrolene (lane 5), 200 μM ruthenium red (lane 7), or no additions (lanes 1, 4 and 6). After 2 hours, media were replaced with media lacking serum but containing the same supplements, and, in addition, 10 nM mifeprisone. Cell lysates were prepared after 24 hours and analyzed by immunoblotting using anti-V5 antibody. FIG. 4B is a graph of mIMCD-3 cells were transfected with 0.2 μg pG5-luc and either 0.2 μg pFC-GV or 0.2 μg pLDLR-GV. After 24 hours, cells were incubated in serum-free media in the presence or absence of 75 μM dantrolene. Relative luciferase activity was determined after 48 h. Data presented are mean ±SE of three separate transfections. The fibrocystin/Gal4-VP16 fusion protein is shown schematically below. […] Cells were lysed after 16 h, and extracts were analyzed by immunoblotting using anti-V5 antibody. […] Luciferase activity was measured after 12 hours. […] Cells were lysed after 16 hours, and extracts were analyzed by immunoblotting using anti-V5 antibody. […]

Test [4] concerns fibrocystin cleavage in HEK-293 cells. Put plainly: Immunoblot (anti-V5) of fibrocystin proteolysis in HEK-293 cells transfected with pFC-V5. On the procedure: as §1
FIG. 5A is an image of a gel that illustrates HEK-293 cells were transfected with 6 μg pFC-V5. […] Fourteen hours later, cellular proteins were extracted and analyzed by immunoblotting using anti-V5 antibody. FIG. 5B is an image of a gel mIMCD3/FC cells were grown for 4 days, and expression of fibrocystin was induced by addition of 10 nM mifepristone. After 24 hours, media were supplemented with 0.1, 0.5, or 1 μM calphostin C. Thirty hours later, cells were harvested, and proteins were analyzed by immunoblotting using anti-V5 antibody. FIG. 5C is an image of a gel illustrating HEK-293 cells were transfected with 3 μg pFC-V5 and either 3 μg of the empty vector pEF-neo (lanes 1 and 3) or 3 μg pEF-PKCαA/E (lanes 2 and 4). After 12 hours media were changed to media containing 10% FCS (lanes 1 and 2) or 0.2% BSA (lanes 3 and 4). Forty-eight hours later, cells were harvested, and proteins were subjected to immunoblotting using anti-V5 antibody. FIG. 5D is a plot illustrating HEK-293 cells transfected with 0.2 μg pG5-luc and 0.2 μg pFC-GV, pLDLR-GV and/or pEF-PKCαA/E. After 16 hours, media were changed to serum-free media containing 100 nM PMA or 500 μM Br-cAMP. Twenty-four hours later, cells were harvested, and relative luciferase activities were determined. Data are the mean ±SE of three independent transfections.
(Immunoblotting shows a protein as a band on a membrane.)

The mark [5] stands for this setting: 0.1, 0.5, or 1 μM calphostin C 24 hours after induction, FIG. 5B.

As to `CC(C)C[C@@H](C=O)NC(=O)[C@H](CC(C)C)NC(=O)[C@H](CC(C)C)NC(=O)OCc1ccccc1` [MG-132, Carbobenzoxy-L-leucyl-L-leucyl-L-leucinal] (Cbz-Leu-Leu-Leu-aldehyde), the fibrocystin cleavage products entry in test [1] (2 μM MG-132 in combination with 20 μM ATP, FIG. 7) is on record as “increased presence of cleavage products”; in test [1] (2 μM MG-132 versus vehicle, FIG. 6), “increase of fibrocystin cleavage products”. Regarding `CC(C)C[C@@H](C=O)NC(=O)[C@H](CC(C)C)NC(=O)[C@@H](NC(=O)OCc1ccccc1)C(C)C` [Z-VLL-CHO, Z-Val-Leu-Leu-CHO] (Cbz-Val-Leu-Leu-aldehyde), in test [1] (15 μM Z-VLL-CHO), the “cleavage of fibrocystin or stability of proteolytic fragments” value is “altered”. On to `C/C1=C/C(=O)O[C@@H]2C[C@@H](CC[C@H](C)/C=C\CC1)O[C@@](O)([C@@H]1CSC(=O)N1)C2` [Latrunculin B], for which, in test [2] (2 μg/ml Latrunculin, FIG. 11), the “cleavage of fibrocystin or stability of proteolytic fragments (luciferase activity)” value (“cleavage … (luciferase activity)” below) is “modulated”. Turning to `C=C1[C@@H](C)[C@H]2[C@H](Cc3ccccc3)NC(=O)[C@]23OC(=O)/C=C/[C@H](O)CCC[C@@H](C)C/C=C/[C@H]3[C@@H]1O` [Cytochalasin B], in test [2] (10 μM Cytochalasin B, FIG. 11), the “cleavage … (luciferase activity)” value is on record as “modulated”.

Regarding `COC(=O)Nc1nc2ccc(C(=O)c3cccs3)cc2[nH]1` [Nocodazole], the “cleavage … (luciferase activity)” value in test [2] (10 μg/ml Nocodazole, FIG. 11) was “modulated”. Take `N.N.N.N.N.N.N.N.N.N.N.N.N.N.[Cl-].[Cl-].[Cl-].[Cl-].[Cl-].[Cl-].[O-2].[O-2].[Ru+3].[Ru+3].[Ru+4]` [ruthenium red]: the “formation of FCA” value in test [3] (pretreatment with 200 μM ruthenium red) is on record as “abolished”. As to `CCCCCCCCCCCCCC(=O)O[C@@H]1[C@@H](C)[C@@]2(O)[C@@H](C=C(CO)C[C@]3(O)C(=O)C(C)=C[C@@H]23)[C@@H]2C(C)(C)[C@]12OC(C)=O` [PMA, phorbol 12-myristate 13-acetate], the “proteolytic cleavage of fibrocystin” value in test [4] (100 nM PMA, HEK-293, 14 hours, FIG. 5A) is reported as “marked increase”. In addition, the “total expression of fibrocystin (CMV promoter)” value in test [4] (100 nM PMA, HEK-293, FIG. 5A) is “increased”. For the same compound, the “increase of luciferase activity” value in test [2] (100 nM PMA, serum-free media, HEK-293, 24 hours, FIG. 5D) is listed as 27 fold. Take `C[N+](C)(C)CCOC(N)=O` [carbachol]: the fibrocystin cleavage result in test [4] (100 μM carbachol, HEK-293 cells without m3 receptor, 16 hours, FIG. 4E) is on record as “only in HEK-293(m3) cells”. Take `NCCOB(c1ccccc1)c1ccccc1` [2-APB]: the “cleavage … (luciferase activity)” value in test [2] (50 μg/ml 2-APB, FIG. 11) is listed as “modulated”.

Take `CC(=O)O[C@H]1C(=O)[C@@]2(C)[C@H]([C@H](OC(=O)c3ccccc3)[C@]3(O)C[C@H](OC(=O)[C@H](O)[C@@H](NC(=O)c4ccccc4)c4ccccc4)C(C)=C1C3(C)C)[C@]1(OC(C)=O)CO[C@@H]1C[C@@H]2O` [Taxol]: the “cleavage … (luciferase activity)” value in test [2] (Taxol in serum-free media, FIG. 10) was “modulated”. On to `CCCC[C@@H](C=O)NC(=O)[C@H](CC(C)C)NC(=O)[C@H](CC(C)C)NC(C)=O` [ALLN, Ac-Leu-Leu-Nle-CHO] (Ac-Leu-Leu-[Nle]-aldehyde), for which, in test [4] (10 μM ALLN versus vehicle, 14 hours, HEK-293, FIG. 8), the “abundance of fibrocystin proteolytic fragments” value is on record as “alteration of the abundance”. For the same compound, in test [1] (10 μM ALLN), the “cleavage of fibrocystin or stability of proteolytic fragments” value was “altered”.

In the case of calphostin C, in test [4] (0.5 μM calphostin with caffeine, HEK-293, FIG. 4C), the caffeine-induced fibrocystin proteolysis entry is given as “prevented”. Further, the “PMA-induced increase of proteolytic cleavage” value in test [4] (pretreatment with 0.5 μM calphostin C, 100 nM PMA, HEK-293, FIG. 5A) is “prevented”. Also, in test [1] (setting [5]), the “expression levels of fibrocystin” value is “did not alter” and the fibrocystin proteolysis result is on record as “dose-dependent inhibition”. `C/C=C(/C)C(=O)O[C@H]1C(C)=C2[C@H]([C@@H]1OC(=O)CCCCCCC)[C@@](C)(OC(C)=O)C[C@H](OC(=O)CCC)[C@@]1(O)[C@H]2OC(=O)[C@@]1(C)O` [thapsigargin]: the “generation of the FCA fragment” value in test [3] (pretreatment with 0.1 μM thapsigargin, lysates after 24 hours) is “abolished”.
